K1/2 and Activity data for three compounds are collected here from ChEMBL document CHEMBL2073948, “Interactions of the human multidrug resistance proteins MRP1 and MRP2 with organic anions” (Mol Pharmacol, 2000).

Type in all cases: functional, cell membranes, Membrane vesicle
Series [1] deals with T1, Multidrug resistance-associated protein 1 (Homo sapiens, UniProt P33527). Put plainly: TP_TRANSPORTER: uptake in membrane vesicles from MRP1-expressing Sf9 cells.
The target in series [2] is T2, ATP-binding cassette sub-family C member 2 (Homo sapiens, UniProt Q92887). Put plainly: TP_TRANSPORTER: uptake in membrane vesicles from MRP2-expressing Sf9 cells.
Series [3] addresses T2, ATP-binding cassette sub-family C member 2. Put plainly: TP_TRANSPORTER: inhibition of NEM-GS uptake (NEM-GS: 4 uM, Furosemide: 5000 uM) in membrane vesicles from MRP2-expressing Sf9 cells. The following applies: sf9, 5000 µM.
Series [4] has the same target. The experiment in a line: TP_TRANSPORTER: inhibition of NEM-GS uptake (NEM-GS: 4 uM, Probenecid: <1000 uM) in membrane vesicles from MRP2-expressing Sf9 cells.
Series [5] deals with T1, Multidrug resistance-associated protein 1. Put plainly: TP_TRANSPORTER: inhibition of NEM-GS uptake (NEM-GS: 4 uM, Probenecid: <1000 uM) in membrane vesicles from MRP1-expressing Sf9 cells.

The structures appear in SMILES notation.

T2 sequence (Q92887 whole entry): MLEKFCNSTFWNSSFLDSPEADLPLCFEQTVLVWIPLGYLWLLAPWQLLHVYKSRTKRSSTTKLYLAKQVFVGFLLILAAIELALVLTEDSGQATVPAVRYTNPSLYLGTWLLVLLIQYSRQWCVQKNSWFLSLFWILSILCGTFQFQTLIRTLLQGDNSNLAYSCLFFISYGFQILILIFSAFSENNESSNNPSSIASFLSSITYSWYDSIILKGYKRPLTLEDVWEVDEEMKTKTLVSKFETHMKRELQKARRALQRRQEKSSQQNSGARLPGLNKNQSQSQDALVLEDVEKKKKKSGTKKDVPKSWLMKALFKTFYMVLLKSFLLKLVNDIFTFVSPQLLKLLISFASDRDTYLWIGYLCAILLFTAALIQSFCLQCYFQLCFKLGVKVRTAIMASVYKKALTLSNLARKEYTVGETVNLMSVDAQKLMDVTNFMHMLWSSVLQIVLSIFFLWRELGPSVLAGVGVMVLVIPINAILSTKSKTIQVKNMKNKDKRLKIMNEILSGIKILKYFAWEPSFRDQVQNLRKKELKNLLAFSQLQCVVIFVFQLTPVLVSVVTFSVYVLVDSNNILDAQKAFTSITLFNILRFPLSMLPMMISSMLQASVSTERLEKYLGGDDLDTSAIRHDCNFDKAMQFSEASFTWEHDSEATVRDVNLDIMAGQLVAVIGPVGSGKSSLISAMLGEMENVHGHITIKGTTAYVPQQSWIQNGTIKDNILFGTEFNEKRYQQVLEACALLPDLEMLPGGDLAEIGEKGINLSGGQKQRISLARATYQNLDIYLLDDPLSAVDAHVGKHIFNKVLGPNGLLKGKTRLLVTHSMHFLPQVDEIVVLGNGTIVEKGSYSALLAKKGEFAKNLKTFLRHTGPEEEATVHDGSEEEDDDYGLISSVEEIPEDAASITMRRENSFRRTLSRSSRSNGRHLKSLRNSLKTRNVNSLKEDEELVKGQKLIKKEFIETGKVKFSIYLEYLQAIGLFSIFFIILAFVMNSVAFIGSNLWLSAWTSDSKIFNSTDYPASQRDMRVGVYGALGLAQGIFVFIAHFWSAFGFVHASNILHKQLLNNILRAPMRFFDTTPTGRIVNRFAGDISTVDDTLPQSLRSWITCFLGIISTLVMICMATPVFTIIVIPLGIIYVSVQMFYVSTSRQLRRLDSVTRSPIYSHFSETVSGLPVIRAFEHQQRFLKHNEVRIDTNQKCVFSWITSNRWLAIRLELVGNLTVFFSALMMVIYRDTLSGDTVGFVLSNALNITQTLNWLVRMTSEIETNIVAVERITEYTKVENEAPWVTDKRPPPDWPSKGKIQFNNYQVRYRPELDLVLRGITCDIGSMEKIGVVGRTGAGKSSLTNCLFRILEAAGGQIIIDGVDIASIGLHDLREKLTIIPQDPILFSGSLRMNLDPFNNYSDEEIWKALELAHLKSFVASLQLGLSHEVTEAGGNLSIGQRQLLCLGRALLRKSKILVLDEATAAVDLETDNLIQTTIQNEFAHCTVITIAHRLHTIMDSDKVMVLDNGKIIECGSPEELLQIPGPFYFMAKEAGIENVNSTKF
T1 sequence (P33527 whole entry): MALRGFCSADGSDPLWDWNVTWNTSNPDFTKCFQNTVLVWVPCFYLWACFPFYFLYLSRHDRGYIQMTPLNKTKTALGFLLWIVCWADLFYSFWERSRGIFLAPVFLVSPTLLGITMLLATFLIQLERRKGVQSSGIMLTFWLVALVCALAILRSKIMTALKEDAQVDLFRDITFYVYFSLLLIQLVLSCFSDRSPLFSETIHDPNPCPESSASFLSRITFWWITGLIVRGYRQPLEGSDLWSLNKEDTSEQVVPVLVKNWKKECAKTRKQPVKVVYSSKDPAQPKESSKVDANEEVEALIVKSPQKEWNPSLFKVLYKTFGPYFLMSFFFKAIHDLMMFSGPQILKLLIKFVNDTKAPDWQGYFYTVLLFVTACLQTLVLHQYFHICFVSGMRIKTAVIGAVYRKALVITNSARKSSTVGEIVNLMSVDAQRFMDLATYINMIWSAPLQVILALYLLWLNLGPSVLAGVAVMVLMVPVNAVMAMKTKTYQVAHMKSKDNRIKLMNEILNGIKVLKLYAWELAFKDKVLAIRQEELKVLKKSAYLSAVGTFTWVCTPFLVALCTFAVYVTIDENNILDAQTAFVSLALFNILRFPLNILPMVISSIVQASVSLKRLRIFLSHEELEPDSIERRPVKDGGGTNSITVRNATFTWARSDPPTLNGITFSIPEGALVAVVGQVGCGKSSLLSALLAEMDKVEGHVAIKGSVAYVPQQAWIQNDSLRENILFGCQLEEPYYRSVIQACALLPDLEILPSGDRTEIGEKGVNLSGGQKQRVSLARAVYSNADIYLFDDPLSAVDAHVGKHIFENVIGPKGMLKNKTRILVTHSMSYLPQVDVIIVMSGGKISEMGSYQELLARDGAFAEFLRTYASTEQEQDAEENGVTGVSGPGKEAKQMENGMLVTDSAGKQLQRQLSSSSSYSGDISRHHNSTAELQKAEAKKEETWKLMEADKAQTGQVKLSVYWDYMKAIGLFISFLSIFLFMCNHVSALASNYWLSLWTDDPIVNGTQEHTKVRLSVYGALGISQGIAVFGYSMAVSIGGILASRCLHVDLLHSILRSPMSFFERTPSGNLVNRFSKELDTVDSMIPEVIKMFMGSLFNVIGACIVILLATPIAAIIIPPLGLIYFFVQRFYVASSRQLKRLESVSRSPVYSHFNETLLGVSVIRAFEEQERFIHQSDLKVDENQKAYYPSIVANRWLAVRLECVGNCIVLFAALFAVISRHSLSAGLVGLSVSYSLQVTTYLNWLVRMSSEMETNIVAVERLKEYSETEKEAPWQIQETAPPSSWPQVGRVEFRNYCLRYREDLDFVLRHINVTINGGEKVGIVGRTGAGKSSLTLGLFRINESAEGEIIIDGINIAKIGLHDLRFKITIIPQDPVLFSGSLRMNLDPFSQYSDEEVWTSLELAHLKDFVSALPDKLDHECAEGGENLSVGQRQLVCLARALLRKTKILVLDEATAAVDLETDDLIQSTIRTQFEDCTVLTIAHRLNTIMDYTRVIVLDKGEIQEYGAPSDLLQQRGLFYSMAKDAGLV

For `NC(CCC(=O)NC(CNCC(=O)O)CSCCN1C(=O)C=CC1=O)C(=O)O` (stereo not given), the figures for the K1/2 in series [1] and in series [2] were 200 µM and 2500 µM, respectively.

For `NS(=O)(=O)c1cc(C(=O)O)c(NCc2ccco2)cc1Cl` [FUROSEMIDE], the Activity entry in series [3] was “inhibitor [+]”. Turning to `CCCN(CCC)S(=O)(=O)c1ccc(C(=O)O)cc1` [PROBENECID], the Activity entry in series [4] and in series [5] was “inhibitor [+]” throughout.
